Publication PMC10439028, “SGLT5 is the renal transporter for 1,5-anhydroglucitol, a major player in two rare forms of neutropenia” (Cellular and Molecular Life Sciences: CMLS, 2023)
Numbering of substitutions follows the chain as printed.

Columns and labels:
hSGLT5 Gly471Glu = molecular target: T1, hSGLT5 Gly471Glu (Homo sapiens, UniProt A0PJK1, G471E); assay: 1,5-AG uptake in HEK293T cells overexpressing SGLT5 variant Gly471Glu; assay type: cell-based
T1 construct: pUB83-hSGLT5-iso2 as well as the various SGLT5 mutants obtained were used to transduce HEK293T cells; expressed in transfected cells; host or cells: HEK293T, lentiviral transduction (pUB83)
T1 sequence (A0PJK1 1-596 G471E): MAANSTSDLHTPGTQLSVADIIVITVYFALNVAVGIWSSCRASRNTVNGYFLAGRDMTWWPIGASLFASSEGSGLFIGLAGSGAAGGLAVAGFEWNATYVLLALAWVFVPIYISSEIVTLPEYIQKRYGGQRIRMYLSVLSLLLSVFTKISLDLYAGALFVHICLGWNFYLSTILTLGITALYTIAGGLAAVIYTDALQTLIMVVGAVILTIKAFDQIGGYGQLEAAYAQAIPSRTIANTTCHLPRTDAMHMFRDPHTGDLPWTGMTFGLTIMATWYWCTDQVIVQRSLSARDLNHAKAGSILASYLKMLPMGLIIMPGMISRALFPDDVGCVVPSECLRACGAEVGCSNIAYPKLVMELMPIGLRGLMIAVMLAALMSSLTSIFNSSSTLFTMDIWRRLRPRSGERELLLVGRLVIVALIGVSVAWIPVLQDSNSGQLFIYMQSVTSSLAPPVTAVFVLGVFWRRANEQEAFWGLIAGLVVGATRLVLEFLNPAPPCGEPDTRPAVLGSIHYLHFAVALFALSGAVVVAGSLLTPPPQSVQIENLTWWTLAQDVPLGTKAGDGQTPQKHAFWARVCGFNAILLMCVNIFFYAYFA
Protocol: For a typical transporter experiment we proceeded as follows. […] To minimize cell loss during the various washing steps in the radioactive uptake experiments, the wells where the cells were seeded were previously coated with poly- D-lysine, which improved their adhesion to the plastic surface of the wells. For this, each well of the 24-well plates was treated with 200 µl of a 0.01% poly-L-lysine solution for 10 min, washed 3 times with 1 ml of sterilized water and left to dry for 2 h. Only then could the 24-well plates be seeded with the appropriate cell lines and cultured overnight at 37 °C in 5% CO2.
On day two, the radioactive uptake assay could be performed. The cell culture media was removed by aspiration and cells were incubated for 20 min at 37 °C and 5% CO2 with a basal medium (10 mM HEPES, pH 7.4, 1 mM CaCl2, 1 mM MgCl2, 2 mM KCl) containing 140 mM choline chloride to deplete intracellular […] ions. This was subsequently replaced with the uptake medium (basal medium + 140 mM NaCl, 25 μM cytochalasin B, 1 mg/ml BSA) containing either radioactive U-[^14C]-mannose (15,000 cpm/well) or 2-[^3H]-1,5-AG (30,000 cpm/well) and respectively, non-radioactive mannose or 1,5-AG, at the required concentration in the experiment. Importantly, when measuring the transport of mannose, the uptake media also contained 0.5 mM glucose. This resulted from the need to reduce the background transport of mannose in control HEK293T cells in order to optimize the transport assay for this sugar in our model cell lines. […]
Once the uptake medium was added to the cells, the plates were incubated at 37 °C in 5% CO2 during the required time. […] In each experiment, the transport activities were calculated after subtracting a “blank” value, corresponding to the radioactivity in the appropriate control cells (HEK293T cells that were stably or transiently transfected with one of the parent plasmids pEF6/MycHisA, pEF6HisB, pUB82 or pUB83 with no inserted cDNA) that were analyzed in parallel. […]

hSGLT5 Arg401His = molecular target: T2, hSGLT5 Arg401His (Homo sapiens, UniProt A0PJK1, R401H); assay: Inhibition of 10 µM 1,5-AG transport by SGLT5 variant Arg401His; assay type: cell-based; settings: Fig. 5D
T2 construct: pUB83-hSGLT5-iso2 as well as the various SGLT5 mutants obtained were used to transduce HEK293T cells; expressed in transfected cells; host or cells: HEK293T, lentiviral transduction (pUB83)
T2 sequence (A0PJK1 1-596 R401H): T1 sequence (A0PJK1 1-596 G471E) with R401H, E471G
Protocol: The transport experiments to study the specificity of SGLT4 or SGLT5, were performed in the presence of 10 µM U-[^14C + ^12C]-mannose (for SGLT4) or 2-[^3H + ^1H]-1,5-AG (for SGLT5) and increasing concentrations of various sugars tested. The transport experiments to study the inhibition of empagliflozin, dapagliflozin or remogliflozin, on the transport of 1,5-AG by SGLT5 or its variants were performed in the presence of 10 µM 2-[^3H + ^1H]-1,5-AG and increasing concentrations of the various gliflozins tested.
SGLT5 mutants were created using the quick-change site directed mutagenesis method that enables effective mutagenesis without subcloning of the amplified PCR products. Complementary primer pairs carrying the desired replacements (Supplementary Table 3) were designed using an online tool (https://www.agilent.com/store/primerDesignProgram.jsp). The PCR protocol was carried out following the manufacturer instructions regarding the KOD HOT Start polymerase kit (TOYOBO™, Novagen). The amplified DNA was cleaned-up from the reactions constituents using the GeneJET PCR purification Kit (Thermo Scientific™) and the size of the DNA fragment were verified by DNA agarose-gel electrophoresis. […]

Compound	Vmax (hSGLT5 Gly471Glu; variant Gly471Glu)	effect of mutation on ability of SGLT5 to transport 1,5-AG (hSGLT5 Gly471Glu; variant Gly471Glu)	Km for 1,5-AG (hSGLT5 Gly471Glu; variant Gly471Glu (rs61741107))	effect of mutation on concentration of empagliflozin needed to inhibit SGLT5 (hSGLT5 Arg401His)
OC[C@H]1OC[C@H](O)[C@@H](O)[C@@H]1O [1,5-AG, 1,5-anhydroglucitol]	No transport	abolished	No transport	
OC[C@H]1O[C@@H](c2ccc(Cl)c(Cc3ccc(O[C@H]4CCOC4)cc3)c2)[C@H](O)[C@@H](O)[C@@H]1O [empagliflozin]				did not affect significantly
